What was measured:
[1] = tested on: hematological tumor cell lines; assay: 3-day proliferation assay (CellTiter-Glo); assay type: cell-based, human; conditions: for IC50: Homo sapiens
Description: Various tumor cell lines were obtained from different sources including; the American Type Cell Culture Collection, the Developmental Therapeutics Program, the National Cancer Institute, the German Resource Center for Biological Material and the European Collection of Animal Cell Cultures. Cell lines were typically grown in […] containing 10% FBS. Some cell lines were grown in media specified by the vendor. A 3-day proliferation assay using CellTiter-Glo (CTG, Promega) was performed to measure the growth inhibition by the compounds at 0–30 µM. Cell growth was determined relative to untreated (DMSO) controls. EC50's were calculated from inhibition curves using a 4- or 6-parameter fitting algorithm in the Assay Client application.

GCK(h) = molecular target: T1, GCK(h) (Homo sapiens, UniProt Q12851); assay: Kinase panel; assay type: biochemical
T1 construct: purchased Millipore KinaseProfiler
T1 sequence (Q12851 1-820): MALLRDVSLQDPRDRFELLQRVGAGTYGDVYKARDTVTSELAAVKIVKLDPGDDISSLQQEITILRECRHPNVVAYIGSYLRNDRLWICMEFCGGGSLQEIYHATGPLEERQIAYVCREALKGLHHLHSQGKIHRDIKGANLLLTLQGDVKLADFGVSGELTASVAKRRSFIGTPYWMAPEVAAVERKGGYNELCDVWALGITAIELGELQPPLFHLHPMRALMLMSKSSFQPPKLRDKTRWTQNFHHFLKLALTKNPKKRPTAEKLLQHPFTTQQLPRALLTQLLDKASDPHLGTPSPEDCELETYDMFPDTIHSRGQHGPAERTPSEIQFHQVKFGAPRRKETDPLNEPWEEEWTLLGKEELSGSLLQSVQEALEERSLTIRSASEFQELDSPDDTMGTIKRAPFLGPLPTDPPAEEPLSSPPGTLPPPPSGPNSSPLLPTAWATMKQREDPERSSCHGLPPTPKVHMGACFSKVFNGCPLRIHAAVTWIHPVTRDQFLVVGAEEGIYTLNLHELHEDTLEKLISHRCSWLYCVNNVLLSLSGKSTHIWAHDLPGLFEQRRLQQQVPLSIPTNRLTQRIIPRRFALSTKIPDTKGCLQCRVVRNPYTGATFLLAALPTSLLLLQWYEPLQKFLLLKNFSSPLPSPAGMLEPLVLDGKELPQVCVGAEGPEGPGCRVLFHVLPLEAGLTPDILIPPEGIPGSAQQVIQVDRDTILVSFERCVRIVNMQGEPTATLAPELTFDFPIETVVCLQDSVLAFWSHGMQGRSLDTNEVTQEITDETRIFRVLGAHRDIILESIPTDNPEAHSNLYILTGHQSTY

In the case of Cn1ncc(Cl)c1-c1cc(C(=O)N[C@H](CN)Cc2cccc(F)c2)sc1Cl [GSK2110183], the “hematological cell lines sensitive (EC50<1 µM)” value ([1]; 112 cell lines, 3 days, CTG) is reported as 65%, the IC50 ([1]; 1A2, 1A2 cell line, Burkitt's Lymphoma, B Cell) is reported as 104 nM and the IC50 ([1]; 697 cell line, ALL, pre-B Cell) is reported as 737 nM. It also gave an IC50 ([1]; ARH-77, ARH77 cell line, Multiple Myeloma, B Cell) of 313 nM, an IC50 ([1]; B-cell, BDCM cell line, AML, B Cell) of 26 nM and an IC50 ([1]; B-cell, CESS cell line, AML, B Cell) of 475 nM. It also gave an IC50 ([1]; B-cell, HKB-11 cell line, Burkitt's Lymphoma, B Cell) of 167 nM, an IC50 ([1]; B-cell, HS-Sultan cell line, Burkitt's Lymphoma, B Cell) of 649 nM and an IC50 ([1]; B-cell, KARPAS-231 cell line, ALL, B Cell) of 119 nM. It also gave an IC50 ([1]; B-cell, MN60 cell line, ALL, B Cell) of 1930 nM, an IC50 ([1]; B-cell, Namalwa cell line, Burkitt's Lymphoma, B Cell) of 908 nM and an IC50 ([1]; B-cell, SD-1 cell line, ALL, B Cell) of 10 nM. It also gave an IC50 ([1]; B-cell, Tanoue cell line, ALL, B Cell) of 1040 nM, an IC50 ([1]; BC1, BC1 cell line, Burkitt's Lymphoma, B Cell) of 2100 nM and an IC50 ([1]; BC-3, BC3 cell line, Burkitt's Lymphoma, B Cell) of 16300 nM. For the same compound, the IC50 ([1]; BV-173, BV173 cell line, CML, pre-B Cell) was 1210 nM, the IC50 ([1]; CA46, CA46 cell line, Burkitt's Lymphoma, B Cell) was 2320 nM and the IC50 ([1]; CCRF-CEM, CCRFCEM cell line, ALL, T Cell) was 369 nM. It also gave an IC50 ([1]; CCRF-SB, CCRFSB cell line, ALL, B Cell) of 56 nM, an IC50 ([1]; CEM/C1, CEM/C1 cell line, ALL, T Cell) of 109 nM and an IC50 ([1]; CEM/C2, CEM/C2 cell line, ALL, T Cell) of 48 nM. It also gave an IC50 ([1]; CML-T1, CML-T1 cell line, CML, T Cell) of 5080 nM, an IC50 ([1]; CRO-AP5, CRO-AP5 cell line, Primary Effusion Lymphoma (PEL), B Cell) of 67 nM and an IC50 ([1]; DB, DB cell line, Non-Hodgkin's Lymphoma, B Cell) of 6320 nM. It also gave an IC50 ([1]; DG-75, DG75 cell line, Burkitt's Lymphoma, B Cell) of 14900 nM, an IC50 ([1]; DOHH-2, DOHH-2 cell line, Non-Hodgkin's Lymphoma, B Cell) of 38 nM and an IC50 ([1]; Daudi, DAUDI cell line, Burkitt's Lymphoma, B Cell) of 441 nM. For the same compound, the IC50 ([1]; EB1, EB1 cell line, Burkitt's Lymphoma, B Cell) was 110 nM, the IC50 ([1]; EB2, EB2 cell line, Burkitt's Lymphoma, B Cell) was 631 nM and the IC50 ([1]; EB-3, EB3 cell line, Burkitt's Lymphoma, B Cell) was 2970 nM. For the same compound, the IC50 ([1]; EM-2, EM2 cell line, CML, Unspecified) was 1220 nM, the IC50 ([1]; GA-10, GA-10 cell line, Burkitt's Lymphoma, B Cell) was 237 nM and the IC50 ([1]; GDM-1, GDM-1 cell line, AML, Monoblast) was 2820 nM. For the same compound, the IC50 ([1]; HD-MY-Z cell line, Hodgkin's Lymphoma, Unspecified) was 9120 nM, the IC50 ([1]; HEL 92.1.7, HEL92.1.7 cell line, AML, Erythroleukemia) was 14100 nM and the IC50 ([1]; HH, HH cell line, Non-Hodgkin's Lymphoma (CTCL), T Cell) was 301 nM. For the same compound, the IC50 ([1]; HL-60, HL-60 cell line, AML, Myeloblast) was 2580 nM, the IC50 ([1]; HSB2, HSB2 cell line, ALL, T Cell) was 5350 nM and the IC50 ([1]; HT, HT cell line, Burkitt's Lymphoma, B Cell) was 206 nM. The IC50 ([1]; HuT78, HuT78 cell line, Non-Hodgkin's Lymphoma (CTCL), T Cell) was 544 nM, the IC50 ([1]; J.gamma1, J.Gamma-1 cell line, ALL, T Cell) was 57 nM and the IC50 ([1]; JIYOYE, JIYOYE cell line, Burkitt's Lymphoma, B Cell) was 1850 nM. The IC50 ([1]; JM1, JM1 cell line, Burkitt's Lymphoma, pre-B Cell) was 759 nM, the IC50 ([1]; Jurkat, Jurkat cell line, ALL, T Cell) was 28 nM and the IC50 ([1]; K562, K562 cell line, CML, Lymphoblast) was 4450 nM. It also gave an IC50 ([1]; KG-1, KG-1 cell line, AML, B Cell) of 61 nM, an IC50 ([1]; KU812, Ku812 cell line, CML, Basophilic Leukocyte) of 187 nM and an IC50 ([1]; Kasumi 1, Kasumi-1 cell line, AML, Myeloblast) of 131 nM. For the same compound, the IC50 ([1]; Kasumi-2 cell line, AML, Myeloblast) was 996 nM, the IC50 ([1]; L-428, L428 cell line, Hodgkin's Lymphoma, Unspecified) was 1.35 nM and the IC50 ([1]; MC116, MC116 cell line, Burkitt's Lymphoma, B Cell) was 1080 nM. It also gave an IC50 ([1]; MEG-01, MEG01 cell line, CML, Megakaryoblastic) of 6140 nM, an IC50 ([1]; MHH-CALL-3 cell line, ALL, pre-B Cell) of 1220 nM and an IC50 ([1]; MHH-PREB-1, MHH-PREB-1 cell line, Non-Hodgkin's Lymphoma, B Cell) of 1920 nM. It also gave an IC50 ([1]; ML-2, ML-2 cell line, AML, Myelomonocytic) of 981 nM, an IC50 ([1]; MOLT-3, MOLT3 cell line, ALL, T Cell) of 62 nM and an IC50 ([1]; MOLT-4, Molt-4 cell line, ALL, T Cell) of 14 nM. For the same compound, the IC50 ([1]; MOLT-16, MOLT16 cell line, ALL, T Cell) was 481 nM, the IC50 ([1]; MV4-11, MV-4-11 cell line, AML, Myelomonocytic) was 1270 nM and the IC50 ([1]; NALM-6, Nalm-6 cell line, ALL, pre-B Cell) was 352 nM. For the same compound, the IC50 ([1]; NC-37, NC-37 cell line, Burkitt's Lymphoma, B Cell) was 1780 nM, the IC50 ([1]; NOMO-1, Nomo-1 cell line, AML, B Cell) was 104 nM and the IC50 ([1]; NU-DHL-1, NU-DHL-1 cell line, Burkitt's Lymphoma, B Cell) was 64 nM. The IC50 ([1]; OCI-AML2, OCI-AML-2 cell line, AML, B Cell) was 10300 nM, the IC50 ([1]; OCI-AML-3, OCI-AML-3 cell line, AML, B Cell) was 113 nM and the IC50 ([1]; OCI-M1, OCI-M1 cell line, AML, B Cell) was 1130 nM. The IC50 ([1]; P3HR-1, P3HR-1 cell line, Burkitt's Lymphoma, B Cell) was 69 nM, the IC50 ([1]; PLB-985, PLB985 cell line, AML, B Cell) was 2990 nM and the IC50 ([1]; Pfeiffer, Pfeiffer cell line, Non-Hodgkin's Lymphoma, B Cell) was 13 nM. It also gave an IC50 ([1]; RCH-ACV cell line, ALL, pre-B Cell) of 668 nM, an IC50 ([1]; RCK8, RC-K8 cell line, Non-Hodgkin's Lymphoma (Histiocytic), B Cell) of 5390 nM and an IC50 ([1]; REH, Reh cell line, ALL, pre-B Cell) of 292 nM. It also gave an IC50 ([1]; RL, RL cell line, Non-Hodgkin's Lymphoma, B Cell) of 225 nM, an IC50 ([1]; RPMI-6666, RPMI 6666 cell line, Hodgkin's Lymphoma, Lymphoblast) of 135 nM and an IC50 ([1]; RS4-11, RS4;11 cell line, ALL, B Cell) of 539 nM. For the same compound, the IC50 ([1]; Raji, Raji cell line, Burkitt's Lymphoma, B Cell) was 6590 nM, the IC50 ([1]; Rec1, REC-1 cell line, Non-Hodgkin's Lymphoma, B Cell) was 3690 nM and the IC50 ([1]; SC-1, SC1 cell line, Burkitt's Lymphoma, B Cell) was 2130 nM. The IC50 ([1]; SEM cell line, ALL, pre-B Cell) was 347 nM, the IC50 ([1]; SKO-007, SKO-007 cell line, Multiple Myeloma, B Cell) was 6770 nM and the IC50 ([1]; SR, SR cell line, Non-Hodgkin's Lymphoma, Lymphoblast) was 2510 nM. The IC50 ([1]; ST486, ST486 cell line, Burkitt's Lymphoma, B Cell) was 2450 nM, the IC50 ([1]; SU-DHL10, SU-DHL-10 cell line, Non-Hodgkin's Lymphoma, B Cell) was 175 nM and the IC50 ([1]; SU-DHL-4, SU-DHL-4 cell line, Non-Hodgkin's Lymphoma, B Cell) was 114 nM. The IC50 ([1]; SU-DHL-5, SU-DHL-5 cell line, Non-Hodgkin's Lymphoma, B Cell) was 153 nM, the IC50 ([1]; SU-DHL-6, SU-DHL-6 cell line, Non-Hodgkin's Lymphoma, B Cell) was 63 nM and the IC50 ([1]; SU-DHL-16, SU-DHL-16 cell line, Non-Hodgkin's Lymphoma, B Cell) was 62 nM. It also gave an IC50 ([1]; SUP-B15, SUP B15 cell line, ALL, B Cell) of 1940 nM, an IC50 ([1]; T-cell, 8E5 cell line, ALL, T Cell) of 43 nM and an IC50 ([1]; T-cell, CEM/C3 cell line, ALL, T Cell) of 35 nM. For the same compound, the IC50 ([1]; T-cell, I2.1 cell line, ALL, T Cell) was 48 nM, the IC50 ([1]; T-cell, J.Cam.1.6 cell line, ALL, T Cell) was 110 nM and the IC50 ([1]; T-cell, J.RT-T3.5 cell line, ALL, T Cell) was 54 nM. For the same compound, the IC50 ([1]; T-cell, JR45.01 cell line, ALL, T Cell) was 33 nM, the IC50 ([1]; T-cell, LOUCY cell line, ALL, T Cell) was 63 nM and the IC50 ([1]; T-cell, MJ cell line, Non-Hodgkin's Lymphoma (CTCL), T Cell) was 4730 nM. For the same compound, the IC50 ([1]; T-cell, SUPTI(VB) cell line, ALL, T Cell) was 200 nM, the IC50 ([1]; TO 175.T, TO 175.T cell line, Hodgkin's Lymphoma, Unspecified) was 8490 nM and the IC50 ([1]; Toledo, Toledo cell line, Non-Hodgkin's Lymphoma, B Cell) was 1150 nM. It also gave an IC50 ([1]; U-937, U937 cell line, Non-Hodgkin's Lymphoma (Histiocytic), Monocyte) of 26 nM, an inhibition at 0.5 µM (GCK(h)) of -1% and an inhibition at 10 µM (GCK(h)) of 10%.

Reference: article PMC4076210, “Discovery of Novel AKT Inhibitors with Enhanced Anti-Tumor Effects in Combination with the MEK Inhibitor” (PLoS ONE, 2014)
